Experimental data as given in article PMC7782499, “Progerinin, an optimized progerin-lamin A binding inhibitor, ameliorates premature senescence phenotypes of Hutchinson-Gilford progeria syndrome” (Communications Biology, 2021).
Several values for one entry are separate records, joined by “and”; a condition that tells them apart may be missing. Equal entries are not always repeated.

Columns and labels:
Lmna G609G/G609G mouse [1] = experiment: Life span of Lmna G609G/G609G progeria model mice; type: in vivo; conditions: i.p. 20 mg/kg twice a week from 5 weeks old
Text: Fig. 3 In vivo favorable effect of SLC-D011. A Gross morphology of Lmna^G609G/G609G mice (10 weeks old) was ameliorated after injection with SLC-D011. At the same age, the experimental group (D011) of mice were larger than vehicle-injected control (Con) subjects regardless of gender. B, C SLC-D011 increases body weight B and extends life span C of Lmna^G609G/G609G progeria model mouse (Con: n = 8; SLC-D011: n = 8). Compared with 14.8 weeks of average (ave) life span with maximum (max) life span of 15.5 weeks, 20 mg/kg of intraperitoneal (i.p) injection (twice a week) of SLC-D011 could extend the life span upto 19 weeks (max = 21 weeks). Lmna^G609G/G609G mice were injected with SLC-D011 from age of 5-week old, *p < 0.05. D Gross morphology of SLC-D011 injected Lmna^G609G/+ mouse. […] E SLC-D011 increases body weights of Lmna^G609G/+ mice (Con: n = 10; SLC-D011: n = 11), *p < 0.05. F Favorable effect of SLC-D011 on life span of Lmna^G609G/+ mice. […] Only the axis reads Age (weeks).
Fig. 4 Oral administration of SLC-D011 suppresses premature aging features. […] H Anti-aging effects of single treatment of SLC-D011 or lonafarnib were measured in HGPS patients-derived cells (AG11513, AG03199, AG11498, and AG03198, Coriell Cell Repositories). […]

[2] = Plasma protein binding, rat; type: in vitro ADME
Experimental: At pre-set time-points, blood concentration of JH4 was determined by LC-MS/MS analysis[22],[23]. Other chemicals were also tested using similar protocol. In vitro ADME studies (plasma protein binding, CYP inhibition, microsomal stability, plasma stability, and hERG inhibition) were performed by New Drug Development Center (Daegu, Korea) using standard protocols[24],[25].

[3] = Solubility and stability of SLC-D011 in water and monoolein-based solution; type: physicochemical
Experimental: Fig. S9. In vitro ADME results of SLC-D011 via oral administration. A. Formulation for complete dissolution. Due to its extremely hydrophobic property, SLC-D011 was not dissolved in water solution (left). To overcome this problem, several edible solutions were tested and monoolein- based solution was selected as a dissolving solution (right). B. SLC-D011 was very stable in solution. For complete dissolution, heating at 80℃ and sonication step were required. However, SLC -D011 was not broken despite of heating […]
and sonication. […] C and D.
Pharmacokinetic analysis of SLC -D011dissolved in monoolein- based solution.

Lmna G609G/G609G mouse [4] = experiment: Body weight of Lmna G609G/G609G mice (ratio, week 4 = 1); type: in vivo; conditions: for body weight: IP injection
Text: Fig. 3 In vivo favorable effect of SLC-D011. A Gross morphology of Lmna^G609G/G609G mice (10 weeks old) was ameliorated after injection with SLC-D011. At the same age, the experimental group (D011) of mice were larger than vehicle-injected control (Con) subjects regardless of gender. B, C SLC-D011 increases body weight B and extends life span C of Lmna^G609G/G609G progeria model mouse (Con: n = 8; SLC-D011: n = 8). Compared with 14.8 weeks of average (ave) life span with maximum (max) life span of 15.5 weeks, 20 mg/kg of intraperitoneal (i.p) injection (twice a week) of SLC-D011 could extend the life span upto 19 weeks (max = 21 weeks). Lmna^G609G/G609G mice were injected with SLC-D011 from age of 5-week old, *p < 0.05. D Gross morphology of SLC-D011 injected Lmna^G609G/+ mouse. […] E SLC-D011 increases body weights of Lmna^G609G/+ mice (Con: n = 10; SLC-D011: n = 11), *p < 0.05. F Favorable effect of SLC-D011 on life span of Lmna^G609G/+ mice. Compared with vehicle-injected control group (ave = 46.7 weeks and max = 48 weeks), SLC-D011 treatment obviously extended the average life span to 63 weeks (max = 64 weeks). The injection was started from 32 weeks old, **p < 0.001. “Con” means vehicle (a solvent composed of DMSO and PBS)-injected mouse group. TEXT PRINTED IN THE PICTURE: (C) D011: Kaplan-Meier survival curve in Lmna^G609G/G609G: Ave=19; Kaplan-Meier survival curve in Lmna^G609G/G609G: Max=21 | (F) D011: Kaplan-Meier survival curve in Lmna^G609G/+: Ave=63; Kaplan-Meier survival curve in Lmna^G609G/+: Max=64 DOUBTS OF THE COPYIST ABOUT THIS PICTURE: Panels C and F: the Ave/Max labels are not printed with a group name. They are assigned to D011 (solid curve) or Con (dashed curve) only by their position beside the curves. / Panel C Ave=14.8, Max=15.5 and panel F Ave=46.7, Max=48 stand beside the dashed Con curve. They are left out because Con is the control group, not a substance. / No unit is printed with the Ave/Max values. Only the axis reads Age (weeks).
Fig. 4 Oral administration of SLC-D011 suppresses premature aging features. A Gross morphology of SLC-D011-treated (D011) mice at 8 weeks old. Body size of treated mouse was apparently larger than that of the untreated control (Con) mouse. B Oral administration of SLC-D011 increases body weights of Lmna^G609G/G609G mice. Compared with untreated control group, body weight of treated mouse was increased by ~35%, *p < 0.05. C Oral administration of SLC-D011 extends the life span of Lmna^G609G/G609G mouse. SLC-D011 in monoolein-based solution was treated by oral gavage (50 mg/kg, daily) from 5 weeks old. […] E Grip test of Lmna^G609G/+ mice at 41-week-old was performed after administration of SLC-D011 for 6 weeks. The test was repeated 10 times for each mouse (n > 4), **p < 0.001. Data are presented as mean ± SD. F Electrocardiographic analysis of Lmna^G609G/+ mice (untreated: n = 4; SLC-D011: n = 4) and Lmna^+/+ mice (n = 3) after treatment with SLC-D011 for 6 weeks (unpaired t test). Heart rate is shown as beats per minute (bpm). G Dental abnormalities in Lmna^G609G/+ mice (untreated: n = 4; SLC-D011: n = 5) and Lmna^+/+ mice (n = 4). […] Lower incisors of Lmna^G609G transgenic mice grow toward the palate because of malocclusion. Oral administration of SLC-D011 for 6 weeks alleviates dental abnormalities. H Anti-aging effects of single treatment of SLC-D011 or lonafarnib were measured in HGPS patients-derived cells (AG11513, AG03199, AG11498, and AG03198, Coriell Cell Repositories). Single treatment of SLC-D011, compared to lonafarnib, reduced the expression of progerin but induced the expression of H3K9me3 and cyclin B1 in HGPS cells more effectively. HGPS patients-derived cells were treated with SLC-D011 (500 nM) or lonafarnib (500 nM) for 3 days. I Scheme of interaction between lamin A and progerin. SLC-D011 interrupts the interaction between lamin A and progerin through direct binding to the C-terminal region of progerin. […]

CC1(C)Oc2cc3oc(=O)ccc3cc2C[C@@H]1OC/C=C/c1ccccc1 [SLC-D011]
Maximum life span (Lmna G609G/G609G mouse [1]): 21 weeks
fraction unbound [2]: 0.002
Solubility in water [3]: very low solubility in water
Stability in monoolein-based solution ([3]; after heating and sonicating): very stable in the solution
body weight (Lmna G609G/G609G mouse [4]; after week 5): 1.167 and 1.25 and 1.182 and 1
body weight (Lmna G609G/G609G mouse [4]; after week 7): 1.333 and 1.417 and 1.273 and 1.077
body weight (Lmna G609G/G609G mouse [4]; after week 8): 1.5 and 1.25 and 1.273 and 1 and 1.462
body weight (Lmna G609G/G609G mouse [4]; after week 9): 1.417 and 1.25 and 1.273 and 1 and 1.385
body weight (Lmna G609G/G609G mouse [4]; after week 10): 1.333 and 1.167 and 1.182 and 1
body weight (Lmna G609G/G609G mouse [4]; after week 13): 1.167 and 0.8333 and 1.091 and 0.8462
body weight (Lmna G609G/G609G mouse [4]; after week 15): 1 and 0.6667 and 0.9231
body weight (Lmna G609G/G609G mouse [4]; after week 16): 1 and 0.8182 and 0.8462
body weight (Lmna G609G/G609G mouse [4]; after week 17): 0.8333 and 0.8182 and 0.7692
body weight (Lmna G609G/G609G mouse [4]; column after week 4): 1.083 and 1
body weight (Lmna G609G/G609G mouse [4]; column after week 6): 1.25 and 1.333 and 1.273 and 1.077
body weight (Lmna G609G/G609G mouse [4]; column after week 11): 1.333 and 1.083 and 1.182 and 1
body weight (Lmna G609G/G609G mouse [4]; column after week 12): 1.25 and 0.9167 and 1.182 and 0.9231
body weight (Lmna G609G/G609G mouse [4]; column after week 14): 1.083 and 0.75 and 1.091 and 0.9231
body weight (Lmna G609G/G609G mouse [4]; column after week 18): 0.8333 and 0.7692
body weight (Lmna G609G/G609G mouse [4]; column after week 19): 0.75
body weight (Lmna G609G/G609G mouse [4]; week 5): 1.167 and 1.091 and 1
body weight (Lmna G609G/G609G mouse [4]; week 6): 1.167 and 1.333 and 1.273 and 1
body weight (Lmna G609G/G609G mouse [4]; week 7): 1.333 and 1.417 and 1.273 and 1
body weight (Lmna G609G/G609G mouse [4]; week 8): 1.417 and 1.273 and 1.077 and 1.385
body weight (Lmna G609G/G609G mouse [4]; week 10): 1.417 and 1.167 and 1.273 and 1 and 1.385
body weight (Lmna G609G/G609G mouse [4]; week 11): 1.333 and 1.083 and 1.182 and 1.077
body weight (Lmna G609G/G609G mouse [4]; week 12): 1.25 and 1 and 1.182 and 0.9231
body weight (Lmna G609G/G609G mouse [4]; week 13): 1.25 and 0.8333 and 1.182 and 0.9231
body weight (Lmna G609G/G609G mouse [4]; week 15): 1.083 and 0.75 and 1.091 and 0.8462
body weight (Lmna G609G/G609G mouse [4]; week 16): 1 and 0.8462
body weight (Lmna G609G/G609G mouse [4]; week 17): 0.8333 and 0.8182 and 0.8462
body weight (Lmna G609G/G609G mouse [4]; week 18): 0.8333 and 0.7692
body weight (Lmna G609G/G609G mouse [4]; week 19): 0.8333
Increase of body weight compared with untreated control (Lmna G609G/G609G mouse [4]; oral administration): ~ 35%
